Our source for the melting point values is a melting point compilation (Tetko et al.; mined from patent text by program, amines drawn as free bases though some values may be those of a salt).

In turn, `CC1=CC(N)(C(=O)NCCC(C)n2ccnc2)CC=C1` (stereo not drawn) showed a melting point of 128 to 130 °C.
To `COc1ccc2c(c1)c1c(n2C(=O)c2ccccc2)CCC(C(=O)O)C1` (stereo not drawn) belongs 216 to 219 °C; to `COc1ccc(C(=O)N2CCc3cc(O)c(OC)cc3C2=O)cc1`, 224 to 225 °C; to `CCN1C(=O)C(=C(Cc2ccccc2)OC)SC1=S`, 120 to 122 °C.
With `O=S(=O)(c1ccccc1)n1cc(I)c2c(OC3CCCCC3)ccnc21`, the melting point fell in the range of 112 to 114 °C.
The same measure for `O=[N+]([O-])c1ccccc1Cc1n[nH]c(Cl)n1`: 160 to 163 °C; for `C#CCn1c(=O)n(C2CCN(C(=O)OCC)CC2)c2ccc(Cl)cc21`: 126 °C; for `O=C(O)Cc1ccc(OCCNC(=O)C2Cc3ccccc3N2S(=O)(=O)c2ccc(-c3cccc(C(F)(F)F)c3)c(F)c2)cc1` (stereo not drawn): 82 °C.
Consider `COc1cc(N2CCCN(C3CCN(C)CC3)CC2)ccc1Nc1ncc2ccc(-c3ccccc3OC)n2n1`, for which the melting point is 71 to 80 °C.
In turn, `CC(Oc1cc(-c2nn(C)c(C(F)(F)F)c2Cl)c(F)cc1Cl)C(=O)O` (stereo not drawn) returned a melting point of 150 to 151 °C.
The compound `ClCc1cccc2c(-c3ccccc3)nccc12` yielded a melting point of 104 °C.
For `OCc1cccc(/C=C/c2nc3cc(F)ccc3s2)n1`, the melting point was 179 to 181 °C.
On to `CN1C(=O)C(c2ccccc2)(C23CC4CC(CC(C4)C2)C3)N=C1N` (stereo not drawn), for which the melting point is 250 °C.
On to `CC12CCC3C(CC=C4NC(=O)CCC43C)C1CC=C2I` (stereo not drawn), for which the melting point lay within 227 to 230 °C.
In the case of `CN(C)C(=O)c1ccccc1Sc1ccc([N+](=O)[O-])cc1[N+](=O)[O-]`, the melting point was 144 to 145 °C.
`CCc1nnc2c(NC3CC3)nc3ccccc3n12`: the melting point was in the range of 190 to 192 °C.
The same measure for `CCOc1cc(NC(=S)NS(=O)(=O)c2ccc(C)cc2)ccn1`: 152 to 153 °C; for `O=C(O)Cc1ccc(NC(=O)C(COc2cccc(Cl)c2)NS(=O)(=O)c2ccc(Br)cc2)cc1` (racemic): 225 to 228 °C.
Take `CC[C@H]1CC[C@H](CCc2ccc(-c3ccc(C#N)cc3)c(F)c2)CC1`: the melting point is 65.4 °C.
The same measure for `CCC(CC)C(NC(=O)c1ccc(Cl)cc1)NC(=C[N+](=O)[O-])Nc1cccnc1` (stereo not drawn): 192 to 193 °C; for `COCCCNc1cc(C(Sc2ccc(Cl)cc2)c2cc(F)ccc2F)c(Cl)cn1` (stereo not drawn): 146 to 148 °C.
As to `COC(=O)c1cccc(C)c1N`, the melting point fell in the range of 27 to 29 °C.
`CC(=O)ON1C(C)(C)CC(C(N)=O)C1(C)C` (stereo not drawn) gave a melting point of 150 to 151 °C.
`CC(Oc1ccc(-n2cnc3cc(C(F)(F)F)ccc32)cc1)C(=O)O` (stereo not drawn) gave a melting point of 181 to 182 °C.
Turning to `CCCCCCC1C(=O)NC(C(=O)SCCNC(C)=O)(C(O)C2C=CCCC2)C1(C)O` (stereo not drawn), the melting point is 82 °C.
On to `COC(=O)CCNc1ccccc1CNC(=O)C1Cc2ccccc2N1S(=O)(=O)c1ccc(-c2cccc(C(F)(F)F)c2)cc1` (stereo not drawn), for which the melting point is 60 °C.
With `CN(O)C(=O)NCCCCCCCOCc1ccccc1`, the melting point lay in the range of 69 to 70.5 °C.
For the compound `COC(=O)CC(NC(=O)CC1CCCCC1)C(C)=O` (stereo not drawn), the melting point was in the range of 75 to 76 °C.
`O=C(CCc1ccccc1)Nc1c(Cl)ccc2nc(N3CCNCC3)ccc12` came in with a melting point of 231 to 234 °C.
Consider `Cc1cc(C)c2c(c1C)OC(C)(C)C2`, for which the melting point was 47 °C.
For `COc1ccc(C2(C#Cc3ccccc3)CCC(=O)CC2)cc1OC1CCCC1`, the melting point was 99 to 100 °C.
To `Cc1ccc(C)c(Cc2c3ccc(C(C)(C)C)cc3c(Cc3cc(C)ccc3C)c3ccc(C(C)(C)C)cc23)c1` belongs 273 to 275 °C; to `COc1cccc2c1CC1CC(CCN3CCC(c4c[nH]c5ccccc45)CC3)CN(C)C1C2` (stereo not drawn), 215 to 217 °C; to `Cc1c(C(=O)N[C@H](C)[C@](O)(Cn2cncn2)c2ccc(F)cc2F)cnn1-c1ccc(Cl)cc1`, 154 to 155 °C.
Compound `O=c1[nH]c(=O)n(C2CC(F)C(COC(c3ccccc3)(c3ccccc3)c3ccccc3)O2)cc1C(I)=CI` (stereo not drawn) came in with a melting point of 58 °C.
Turning to `O=C(C1=C(c2ccccc2)c2ccc(O)cc2C1)c1ccc(O)cc1`, the melting point lay within 191 to 192 °C.
To `Cc1[nH]c2cccc(/C=C/C(=O)OCc3ccccc3)c2c1Cn1ccnc1` belongs 207 to 208 °C; to `CC(=O)n1c(=O)oc2c(Cl)c(Cl)c(Cl)cc21`, 171 to 172 °C.
With `O=C1Nc2cc([N+](=O)[O-])ccc2OC1(C(F)F)C(F)F`, the melting point lay within 178 to 181 °C.
As to `CCCCCCCCCc1cc(=O)c2c(O)cc(O)cc2o1`, the melting point came to 101 °C.
The same measure for `CCOCc1nc2c(N)nc3cccnc3c2n1CC(C)(C)NC(=O)C(C)C`: 154 to 156 °C.
Turning to `CC(C)(C)OC(=O)Nc1ccccc1NC(=O)c1ccc(C(=O)Nc2cccc(Nc3nc(-c4cccnc4)cs3)c2)s1`, the melting point came out at 198 °C.
On to `CCN1C[C@@H](C(=O)OC(C)(C)C)N(C(=O)[C@H](C)CSC(=O)c2ccccc2)C1=O`, for which the melting point was in the range of 92 to 93 °C.
The compound `COc1ccc(N(CCC(O)CO)S(=O)(=O)c2c(F)c(F)c(F)c(F)c2F)cc1` (stereo not drawn) displayed a melting point of 126 to 128 °C.
`CCc1cc2c(s1)-n1c(C)nnc1C(CCCCC(=O)O)N=C2c1ccc(Cl)cc1` (stereo not drawn) showed a melting point of 257 to 260 °C.
Consider `Cc1[nH]c2ccccc2c1CCCN1CCC(c2noc3cc(F)ccc23)CC1`, for which the melting point fell in the range of 208 to 210 °C.
To `CS(=O)(=O)Nc1ccc(C(=O)CC(=O)C2CC2)c(Cl)c1` belongs 120 to 122 °C.
With `CN1C(=O)C(C#N)(c2ccc(OCC3CO3)cc2)Sc2ccccc21` (stereo not drawn), the melting point was in the range of 136 to 139 °C.
The compound `ClC(Cl)(Cl)C1NCCO1` (stereo not drawn) had a melting point of 73 °C.
`O=S(=O)(c1ccccc1)N1CCCC1c1cccc(F)c1` (racemic) registered a melting point of 96 °C.
The same measure for `CC(=O)N1CCC(C)(C)c2cc(F)cc(CCN3CCN(c4nsc5ccc(F)cc45)CC3)c21`: 128 °C; for `O=c1cnc(-c2c(F)cccc2F)n[nH]1`: 219 to 226 °C.
In the case of `Cc1cc(-c2ccc(C(F)(F)F)cc2)cn2c(-c3cc(-c4ncon4)c(S(N)(=O)=O)s3)cnc12`, the melting point was 285 °C.
As for `COC(=O)[C@H](Cc1ccc(NC(=O)c2c(Cl)cccc2Cl)cc1)NC(=S)C1(CCCCS(C)(=O)=O)CCCC1`, the melting point fell in the range of 200 to 202 °C.
In turn, `COc1ccc2[nH]cc(C)c2c1OCc1ccccc1` gave a melting point of 60 to 61 °C.
The same measure for `CCOC(=O)C(Cc1c[nH]c2c(Cl)cccc12)(NC=O)C(=O)OCC`: 159 to 162 °C; for `O=C(C(=O)c1ccc(Oc2cccc(Br)c2)cc1)c1ccccc1`: 75 to 76 °C; for `COc1ccc(C=Cc2ccc(CBr)cc2)c(Cl)c1`: 99 to 100 °C.
Regarding `Nc1nonc1-c1nc2ccccc2n1CC(=O)C=Cc1ccccc1`, the melting point was in the range of 176 to 180 °C.
On to `O=C(O)Cc1cc(=O)[nH]c2ccccc12`, for which the melting point fell in the range of 213 to 215 °C.
The compound `CCOC(=O)c1ccc(NCCCCc2cccs2)cc1` displayed a melting point of 63 to 65 °C.
The same measure for `O=C(NCCCCc1ccccc1)Oc1ccc2oc3ccccc3c2c1`: 113 to 114 °C; for `Oc1ccc2cc(-c3noc4cc(O)ccc34)ccc2c1`: 280 to 282 °C; for `CCCN(Cc1ccc(C(=O)N(CCC)C2CCc3ncsc3C2)cc1)C1CCc2ncsc2C1` (stereo not drawn): 85 °C.
The same measure for `CCCCCCCCCc1cnc(-c2ccc(O)c(F)c2)nc1`: 46 to 47.5 °C; for `CN(C)CCn1c2c(c3ccccc31)CCSCCC2`: 62 to 64 °C.
To `CN1C2=CC=CN(CCc3ccc(OCc4ccccc4)cc3)C2=Nc2ccccc2S1(=O)=O` belongs 133 to 134 °C; to `C=Cc1ccncc1C#N`, 56 to 57 °C.
`COC(=O)C1CCCn2c(=O)n(CSC(C)=O)c(=O)n21` (stereo not drawn): the melting point fell in the range of 100 to 102 °C.
For `NS(=O)(=O)c1cc(C(F)(F)F)cc(C(F)(F)F)c1`, the melting point is 183 to 185 °C.
For the compound `CC(C)(C)c1cc(CCC(=O)NCCNc2cccc(Cl)c2C#N)cc(C(C)(C)C)c1O`, the melting point lay in the range of 164 to 167 °C.
With `CCCOc1ccccc1-c1nc2n(C3CCCC3)[nH]c(C)c-2c(=O)n1`, the melting point was in the range of 130 to 132 °C.
To `CC(Oc1cccc(-c2ccc(Cl)c(C(=O)NCC34CC5CC(CC(C5)C3)C4)c2)c1)C(=O)O` (stereo not drawn) belongs 115 to 120 °C; to `CCOC(=O)C(=O)Nc1c(C)cc(C(F)(F)F)cc1[N+](=O)[O-]`, 118 to 120 °C.
Turning to `CC(C)Oc1ccc(/C=C(\NC(=O)c2ccc(OCCC3C=CCC3)cc2)C(=O)NCCO)cc1` (stereo not drawn), the melting point lay within 67 to 70 °C.
`CCCC(CCC)n1c(CC)nc2[nH]c(=O)n(C)c(=O)c21` yielded a melting point of 152 to 153 °C.
As to `CSc1ccc(C(=O)C(C)CC(=O)O)cc1` (stereo not drawn), the melting point fell in the range of 69 to 71 °C.
To `c1ccc2c(c1)CCc1ccccc1C2CNc1ccncc1` belongs 145 to 146 °C; to `CCCCCCCCCN1C(=O)C=CC1=O`, 45 to 47 °C; to `CC(=O)Nc1ccccc1-c1ccc2c(c1)S(=O)(=O)NC(C1CCCCC1)N2` (stereo not drawn), 245 to 249 °C.
In turn, `CC(c1ccc(-c2ccccc2)c(F)c1)c1nc(N)no1` (stereo not drawn) displayed a melting point of 174 to 175 °C.
To `COc1ccc(-c2cncc(C#N)c2-c2ccc3[nH]ccc3c2)cc1OC` belongs 215 to 217 °C.
`CN(N)c1nc(C(F)(F)F)nc2ccccc12` gave a melting point of 130 to 132 °C.
`COc1ccc(-c2ncc(Cl)nc2-c2ccc(OC)cc2)cc1` had a melting point of 126 to 127 °C.
The same measure for `Cn1c([N+](=O)[O-])cnc1-c1nc2ccccc2c(=O)[nH]1`: 256 to 260 °C.
Regarding `CC(C(=O)O)c1ccc2nc(-c3ccccc3)ccc2c1` (stereo not drawn), the melting point lay in the range of 161 to 162 °C.
`COc1cc(CCN2CCc3cc(O)ccc3C2)cc(OC)c1OC` gave a melting point of 180 to 186 °C.
With `COC(=O)c1ccc(NC(=O)c2c(-c3ccccc3)c(-c3ccc(F)cc3)n(CC[C@@H]3C[C@H](CC(=O)OC(C)(C)C)OC(C)(C)O3)c2C(C)C)cc1`, the melting point was in the range of 159 to 160 °C.

As usually defined, the melting point is the temperature of the solid-liquid transition.
